# Results published in PubChem BioAssay (NCI).
#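 Tested at 5 concentrations; 48 h exposure; 96-well plates; endpoints linearly interpolated, else capped at highest concentration. GI50: concentration for 50% inhibition of growth. TGI marks complete inhibition of growth.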
# How the values were obtained:
# Test in all cases: DTP human tumour cell line panel, 48 h
# [1] = system: KM12 colon
# [2] = system: DU-145 prostate
# [3] = system: SK-MEL-28 melanoma
# [4] = system: NCI/ADR-RES ovarian
# [5] = system: OVCAR-3 ovarian
# [6] = system: MOLT-4 leukemia
# [7] = system: HL-60(TB) leukemia
# [8] = system: MDA-MB-231 breast
# [9] = system: CCRF-CEM leukemia
# [10] = system: SR leukemia
# [11] = system: OVCAR-4 ovarian
# [12] = system: A549 NSCLC
# [13] = system: SN12C renal
# [14] = system: OVCAR-5 ovarian
# [15] = system: NCI-H23 lung
# [16] = system: COLO 205 colon
# [17] = system: SF-295 CNS
# [18] = system: UACC-62 melanoma
# [19] = system: HCT-15 colon
# [20] = system: SK-OV-3 ovarian
# [21] = system: LOX IMVI melanoma
# [22] = system: NCI-H460 lung
# [23] = system: CAKI-1 renal
# [24] = system: 786-0 renal
# [25] = system: SF-539 CNS
# [26] = system: SW-620 colon
# [27] = system: RXF 393 renal
# [28] = system: MDA-MB-435
# [29] = system: U251 CNS
# [30] = system: IGROV1 ovarian
# [31] = system: MCF7 breast
# [32] = system: TK-10 renal
# [33] = system: EKVX NSCLC
# [34] = system: HOP-92 NSCLC
# [35] = system: K-562 leukemia
# [36] = system: ACHN renal
# [37] = system: PC-3 prostate
# [38] = system: UACC-257 melanoma
# [39] = system: OVCAR-8 ovarian
# [40] = system: M14 melanoma
# [41] = system: SNB-19 CNS
# [42] = system: SNB-75 CNS
# [43] = system: T-47D breast
# [44] = system: SK-MEL-5 melanoma
# [45] = system: HT29 colon
# [46] = system: SK-MEL-2 melanoma
# [47] = system: NCI-H522 lung
# [48] = system: HCT-116 colon
# [49] = system: UO-31 renal
# [50] = system: RPMI-8226 leukemia
smiles,measurement,setting,value
COc1cc2c(cc1OC)-c1ncc3cc(OC)c(OC)cc3c1C2,GI50,[1],> 50 µM
same,TGI,[1],> 50 µM
same,GI50,[2],> 50 µM
same,TGI,[2],> 50 µM
same,GI50,[3],> 50 µM
same,TGI,[3],> 50 µM
same,GI50,[4],> 50 µM
same,TGI,[4],> 50 µM
same,GI50,[5],> 50 µM
same,TGI,[5],> 50 µM
same,GI50,[6],25.4 µM
same,TGI,[6],> 50 µM
same,GI50,[7],16.2 µM
same,TGI,[7],> 50 µM
same,GI50,[8],> 50 µM
same,TGI,[8],> 50 µM
same,GI50,[9],25.9 µM
same,TGI,[9],> 50 µM
same,GI50,[10],31.8 µM
same,TGI,[10],> 50 µM
same,GI50,[11],> 50 µM
same,TGI,[11],> 50 µM
same,GI50,[12],> 50 µM
same,TGI,[12],> 50 µM
same,GI50,[13],> 50 µM
same,TGI,[13],> 50 µM
same,GI50,[14],> 50 µM
same,TGI,[14],> 50 µM
same,GI50,[15],> 50 µM
same,TGI,[15],> 50 µM
same,GI50,[16],> 50 µM
same,TGI,[16],> 50 µM
same,GI50,[17],> 50 µM
same,TGI,[17],> 50 µM
same,GI50,[18],> 50 µM
same,TGI,[18],> 50 µM
same,GI50,[19],> 50 µM
same,TGI,[19],> 50 µM
same,GI50,[20],> 50 µM
same,TGI,[20],> 50 µM
same,GI50,[21],> 50 µM
same,TGI,[21],> 50 µM
same,GI50,[22],> 50 µM
same,TGI,[22],> 50 µM
same,GI50,[23],> 50 µM
same,TGI,[23],> 50 µM
same,GI50,[24],> 50 µM
same,TGI,[24],> 50 µM
same,GI50,[25],> 50 µM
same,TGI,[25],> 50 µM
same,GI50,[26],> 50 µM
same,TGI,[26],> 50 µM
same,GI50,[27],> 50 µM
same,TGI,[27],> 50 µM
same,GI50,[28],> 50 µM
same,TGI,[28],> 50 µM
same,GI50,[29],> 50 µM
same,TGI,[29],> 50 µM
same,GI50,[30],20.2 µM
same,TGI,[30],> 50 µM
same,GI50,[31],> 50 µM
same,TGI,[31],> 50 µM
same,GI50,[32],> 50 µM
same,TGI,[32],> 50 µM
same,GI50,[33],> 50 µM
same,TGI,[33],> 50 µM
same,GI50,[34],> 50 µM
same,TGI,[34],> 50 µM
same,GI50,[35],> 50 µM
same,TGI,[35],> 50 µM
same,GI50,[36],> 50 µM
same,TGI,[36],> 50 µM
same,GI50,[37],> 50 µM
same,TGI,[37],> 50 µM
same,GI50,[38],> 50 µM
same,TGI,[38],> 50 µM
same,GI50,[39],> 50 µM
same,TGI,[39],> 50 µM
same,GI50,[40],> 50 µM
same,TGI,[40],> 50 µM
same,GI50,[41],> 50 µM
same,TGI,[41],> 50 µM
same,GI50,[42],> 50 µM
same,TGI,[42],> 50 µM
same,GI50,[43],> 50 µM
same,TGI,[43],> 50 µM
same,GI50,[44],> 50 µM
same,TGI,[44],> 50 µM
same,GI50,[45],> 50 µM
same,TGI,[45],> 50 µM
same,GI50,[46],> 50 µM
same,TGI,[46],> 50 µM
same,GI50,[47],24.5 µM
same,TGI,[47],> 50 µM
same,GI50,[48],> 50 µM
same,TGI,[48],> 50 µM
same,GI50,[49],> 50 µM
same,TGI,[49],> 50 µM
same,GI50,[50],14 µM
same,TGI,[50],> 50 µM
